Reference: patent US20110190235A1, “BORON-CONTAINING SMALL MOLECULES AS ANTIPROTOZOAL AGENTS” (Anacor Pharmaceuticals, Inc., priority 2009, published 2011)
Like-named read-outs stand apart in the source and are kept apart here.

Experiments:
[1] = Pharmacokinetic studies in mice (plasma, brain); format: in vivo; conditions: for CL/F / half-life / Cmax / AUC(0-inf) / AUC(0-t): male, CD-1, mouse; for CL/F: read-out: Oral Clearance Cl/F (converted); for half-life: read-out: t½ (converted); for AUC(0-inf): read-out: Exposure/trapezoid AUC0-inf
Experimental: Male CD-1 mice weighing approximately 25 g received the test article (E19 or 82 or E14 or 69) by either intravenous (IV), oral gavage (OG) or intra-peritoneal (IP) routes. Animals in IV group (6-10 animals, 1-2 per time point) received a single bolus injection of approximately 2 mg/kg of the test article. Animals receiving […], or as 4 repeat doses ([…], 1-2 per time point).
All doses were administered as clear colorless solutions in either: 50% (v/v) PEG400:20% (v/v) ethanol:30% (v/v) carboxymethylcellulose (0.5% w/v in sterile water for injection, WFI), or as in situ sodium salts in 5% (m/v) dextrose:2% (v/v) ethanol in DWI. All dose solutions were delivered at 4 mL/kg. Animals were fasted for at least 4 hours before dosing, and for 2 hours after dosing.
Blood samples and brain tissue were sampled from 1 or 2 animals/timepoint/group immediately before dosing and approximately 0.17, 0.5, 1, 2, 3, 4, 6, 8, 12, 18 and 24 hr after dosing for full pharmacokinetic and tissue analysis, or at 0.5, 2 and 4 hours post dosing to assess early-phase CNS disposition.
Bioanalysis for test article in whole blood, plasma or brain tissue was performed by HPLC with tandem mass spectrometry (LC-MSMS). Whole blood and plasma samples were treated with 3 volumes of either acetonitrile or methanol to precipitate plasma proteins. Treated samples were centrifuged and supernatants removed for analysis. Brain tissues were weighed and homogenized mechanically in the presence of 1 volume of phosphate-buffered saline (PBS). The resulting tissue suspensions were then diluted with a further volume of PBS, and then treated in the same manner as whole blood or plasma.
Extracted samples were assayed for test article by means of LC-MSMS employing reversed-phase chromatography coupled to a triple quadrupole mass spectrometer employing electrospray ionization in the positive ion mode. The analytical column was a Phenomenex Luna 3μ C8 50×2 mm, with an online sample purification step performed on a Phenomenex Synergi 4μ Polar RP 50×2 mm column.
Test articles were eluted using a binary mobile phase gradient comprising 5 mM Ammonium Acetate: 0.1% formic acid in either MeOH or H2O.
Non-compartmental analysis of plasma test article concentration versus time was performed in Microsoft Excel to generate pharmacokinetic parameters including: area under the curve (AUC), clearance (as Cl or Cl/F), volume of distribution (Vdss), half-life (t½), and bioavailability (F).

[2] = Pharmacokinetic studies in rats (plasma, brain, CSF); format: in vivo; conditions: for half-life: read-out: t½ (converted); for Cmax / AUC(0-t) / AUC(0-inf): normalized to 25 mg/kg; for AUC(0-t): read-out: Exposure/trapezoid AUC0-18; for AUC(0-inf): read-out: Exposure/trapezoid AUC0-inf
Experimental: Male Sprague Dawley rats weighing approximately 200 g received test article (E19 or 82) as a single oral gavage (OG) dose of approximately 25 mg/kg (approximately 10 animals per group).
All doses were administered as clear colorless solutions as in situ sodium salts in 5% (m/v) dextrose:2% (v/v) ethanol in DWI. All dose solutions were delivered at 2 mL/kg. Animals were fasted for at least 4 hours before dosing, and for 2 hours after dosing.
Blood and CSF samples and brain tissue were sampled from 1 animal/timepoint/group immediately before dosing and approximately 0.5, 1, 2, 3, 4, 6, 8, 12, 18 and 24 hr after dosing for full pharmacokinetic (plasma and CSF) and tissue (Brain) analysis.

[3] = test system: bloodstream-form trypanosome T. brucei brucei 427 strain; assay: Trypanosoma brucei brucei high-throughput in vitro drug sensitivity assay (resazurin); format: cell-based; conditions: for IC50: Trypanosoma brucei; for Selectivity Index (L929 IC50 / T. b. brucei IC50): T. b. brucei vs L929
[4] = L929 cytotoxicity evaluation (resazurin); format: cell-based; conditions: mouse, 72 hrs incubation, read-out: Cytotox L-929 IC50
Outline: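 Mouse L929 fibroblasts (1×10^4/mL seeding, attached overnight) were treated 72 h at 37 °C, 5% CO2 with serially diluted compounds in DMSO in D-MEM/10% FBS. Viability read by resazurin fluorescence after 3–4 h (ex 544/em 590 nm); IC50 from sigmoidal fits of single data points.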

[5] = 8 mg/kg, brain, oral, mice (Table 3a)
[6] = 8 mg/kg, brain, oral, mice, normalized to 25 mg/kg (Table 3a)
[7] = 8 mg/kg, plasma, oral, mice (Table 3a)
[8] = 8 mg/kg, plasma, oral, mice, normalized to 25 mg/kg (Table 3a)
[9] = male, Sprague Dawley, rat, CSF, oral, rats
[10] = male, Sprague Dawley, rat, brain, oral, rats
[11] = male, Sprague Dawley, rat, plasma, oral, rats
[12] = 72 hrs incubation, read-out: T.b. brucei IC50

`O=C(Nc1ccc2c(c1)B(O)OC2)c1ccc(F)cc1Cl` [E14, 2-Chloro-4-fluoro-N-(1-hydroxy-1,3-dihydro-benzo[c][1,2]oxaborol-6-yl)-benzamide] gave a CL/F [1, 5] of 134 mL/min/kg, a half-life [1, 5] of 1.6 h and a Cmax [1, 6] of 2440 ng/mL. The AUC(0-inf) [1, 6] was 3150 ng·h/mL, the AUC(0-t) ([1]; 8 mg/kg, brain, oral, mice, normalized to 25 mg/kg (Table 3a), read-out: Exposure/trapezoid AUC0-last) was 3120 ng·h/mL and the CL/F [1, 7] was 28.8 mL/min/kg. For the same molecule, the half-life [1, 7] was 2.97 h, the Cmax [1, 8] was 3590 ng/mL and the AUC(0-inf) [1, 8] was 15200 ng·h/mL. The AUC(0-t) ([1]; 8 mg/kg, plasma, oral, mice, normalized to 25 mg/kg (Table 3a), read-out: Exposure/trapezoid AUC0-last) was 14400 ng·h/mL.
With `O=C(Nc1ccc2c(c1)B(O)OC2)c1ccc(F)cc1C(F)(F)F` [E19, 4-Fluoro-N-(1-hydroxy-1,3-dihydro-benzo[c][1,2]oxaborol-6-yl)-2-trifluoromethyl-benzamide] the half-life ([1]; 25 mg/kg, brain, oral, mice) was 2.3 h, the CL/F ([1]; 25 mg/kg, plasma, oral, mice) was 3.83 mL/min/kg and the half-life ([1]; 25 mg/kg, plasma, oral, mice) was 17.1 h. For the same molecule, the Cmax ([1]; brain, oral, mice, normalized to 25 mg/kg (nominal 25 mg/kg)) was 6100 ng/mL, the AUC(0-t) ([1]; brain, oral, mice, normalized to 25 mg/kg, read-out: Exposure/trapezoid AUC0-18) was 13100 ng·h/mL and the AUC(0-inf) ([1]; brain, oral, mice, normalized to 25 mg/kg) was 13200 ng·h/mL. The Cmax ([1]; plasma, oral, mice, normalized to 25 mg/kg (nominal 25 mg/kg)) was 10000 ng/mL, the AUC(0-t) ([1]; plasma, oral, mice, normalized to 25 mg/kg, read-out: Exposure/trapezoid AUC0-18) was 70600 ng·h/mL and the AUC(0-inf) ([1]; plasma, oral, mice, normalized to 25 mg/kg) was 109000 ng·h/mL. The “brain concentrations relative to the MIC” value ([1]; mouse and rat, brain (and CSF)) was “decrease rapidly to levels below the MIC within a few hours after dosing”, the “dose proportionality of brain exposure” value ([1]; oral delivery to mice) was “generally dose-proportional increases” and the “dose proportionality of plasma exposure” value ([1]; oral delivery to mice) was “greater than proportional at doses above 20 mg/kg”. The “F (% of IV)” value ([1]; plasma, oral, mice) was 26%, the “plasma PK when administered to rodents” value ([1]; rodents, plasma) was “good exposure (AUC and Cmax), promising bioavailability, prolonged half-life, and low clearance” and the half-life ([2]; male, Sprague Dawley, rat, 25 mg/kg, CSF, oral, rats) was 3.1 h. The half-life ([2]; male, Sprague Dawley, rat, 25 mg/kg, brain, oral, rats) was 2.6 h, the CL/F ([2]; male, Sprague Dawley, rat, 25 mg/kg, plasma, oral, rats, read-out: Oral Clearance Cl/F (converted)) was 4.35 mL/min/kg and the half-life ([2]; male, Sprague Dawley, rat, 25 mg/kg, plasma, oral, rats) was 8.1 h. The Cmax [2, 9] was 1200 ng/mL, the AUC(0-t) [2, 9] was 3800 ng·h/mL and the AUC(0-inf) [2, 9] was 3900 ng·h/mL. The Cmax [2, 10] was 2500 ng/mL, the AUC(0-t) [2, 10] was 12700 ng·h/mL and the AUC(0-inf) [2, 10] was 12700 ng·h/mL. For the same molecule, the Cmax [2, 11] was 12300 ng/mL, the AUC(0-t) [2, 11] was 98300 ng·h/mL and the AUC(0-inf) [2, 11] was 102000 ng·h/mL. The “time levels in brain and CSF are above the in vitro MIC” value ([2]; nominal single oral dose of 25 mg/kg to rats) was 4 h, the “F (% of IV)” value ([2]; plasma, oral, rats) was 123.0% and the “dose proportionality of exposure in plasma, brain and CSF” value ([2]; rats) was “increase in a generally proportional manner with dose”.
For `CC1(C)OB(O)c2cc(NC(=O)C3CCC3)ccc21` [compound 127, Cyclobutanecarboxylic acid (1-hydroxy-3,3-dimethyl-1,3-dihydro-benzo[c][1,2]oxaborol-6-yl)-amide], the IC50 [3, 12] was 2.85 µg/mL and the IC50 at 72 h ([4]; L929 mouse fibroblast cells) was > 10 µg/mL.
With `CC1(C)OB(O)c2cc(NC(=O)C3CCCC3)ccc21` [compound 128, Cyclopentanecarboxylic acid (1-hydroxy-3,3-dimethyl-1,3-dihydro-benzo[c][1,2]oxaborol-6-yl)-amide] the IC50 [3, 12] was > 5 µg/mL and the IC50 at 72 h ([4]; L929 mouse fibroblast cells) was > 10 µg/mL.
With `CC1(C)OB(O)c2cc(NC(=O)C3CCCCC3)ccc21` [compound 129, Cyclohexanecarboxylic acid (1-hydroxy-3,3-dimethyl-1,3-dihydro-benzo[c][1,2]oxaborol-6-yl)-amide] the IC50 [3, 12] was > 5 µg/mL and the IC50 at 72 h ([4]; L929 mouse fibroblast cells) was > 10 µg/mL.
For `CC(=O)Nc1ccc2c(c1)B(O)OC2(C)C` [compound 130, N-(1-Hydroxy-3,3-dimethyl-1,3-dihydro-benzo[c][1,2]oxaborol-6-yl)-acetamide], the IC50 [3, 12] was > 5 µg/mL and the IC50 at 72 h ([4]; L929 mouse fibroblast cells) was > 10 µg/mL.
With `CC1(C)OB(O)c2cc(NC(=O)C(F)(F)C(F)(F)C(F)(F)F)ccc21` [compound 131, 2,2,3,3,4,4,4-Heptafluoro-N-(1-hydroxy-3,3-dimethyl-1,3-dihydro-benzo[c][1,2]oxaborol-6-yl)-butyramide] the IC50 ([3]; 72 h, read-out: T.b. brucei IC50 (ug/mL)) was > 5 µg/mL and the IC50 at 72 h [4] was > 10 µg/mL.
For `CCC(C)(C)C(=O)Nc1ccc2c(c1)B(O)OC2(C)C` [compound 132, N-(1-Hydroxy-3,3-dimethyl-1,3-dihydro-benzo[c][1,2]oxaborol-6-yl)-2,2-dimethyl-butyramide], the IC50 [3, 12] was 3.81 µg/mL and the IC50 at 72 h ([4]; L929 mouse fibroblast cells) was > 10 µg/mL.
In the case of `O=C(Nc1ccc2c(c1)B(O)OC21CC1)c1ccc(F)cc1C(F)(F)F` [compound 133], the “Selectivity Index (L929 IC50 / T. b. brucei IC50)” value [3] is reported as 100, the IC50 [3, 12] is reported as 0.191 µg/mL and the IC50 at 72 h ([4]; L929 mouse fibroblast cells) is reported as > 10 µg/mL.
In the case of `O=C(Nc1ccc2c(c1)B(O)OC21CCCC1)c1ccccc1Cl` [compound 137, 2-Chloro-N-(1-hydroxy-3,3-spirocyclopentyl′-1,3-dihydro-benzo[c][1,2]oxaborol-6-yl)-benzamide], the “Selectivity Index (L929 IC50 / T. b. brucei IC50)” value [3] is reported as >3, the IC50 ([3]; 72 hrs incubation, read-out: T. b. brucei IC50) is reported as 10.6 µM and the IC50 [3, 12] is reported as 3.62 µg/mL. For the same molecule, the IC50 at 72 h ([4]; L929 mouse fibroblast cells) was > 10 µg/mL.
